Results on nine compounds are retold here after ChEMBL document CHEMBL1201862, “PubChem BioAssay data set” (2004).

Among the test systems are 786-0; A549; EKVX; HOP-62; K562; KM12; M14; MCF7; MOLT-4; NCI-H226; NCI/ADR-RES; OVCAR-3; OVCAR-5; RPMI-8226; RXF 393; SF-539; SK-MEL-5; SK-OV-3; SNB-19; U-251.
What all share (assay): DTP human tumour cell line panel, 48 h

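Compound exposure: 48 hours, 5 concentrations, 96-well plates. Abbreviation: GI50, concentration required for 50% inhibition of growth.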 The source made the active and inactive calls. No stated cut-off is given here; in the data, active = GI50 up to about 1.1 µM and inactive = higher. Where a SMILES comes first, the peptide text is derived from it. [ ]: non-standard residue; d: D form. The star is where a group is joined. ξ: configuration not given here. NMeF = CN[C@@H](Cc1ccccc1)C(=O)O; NMeV = CN[C@H](C(=O)O)C(C)C; ξNMeN = CNC(CC(N)=O)C(=O)O; NMeA = CN[C@@H](C)C(=O)O; ξNMeV = CNC(C(=O)O)C(C)C; Boc = CC(C)(C)OC(=O)* Bounds are passed on as bounds.

What is called GI50 is the concentration at which growth is held to half of that of the control.

As to `CC1(C)SC2C(C(=O)O)N=C(Cc3ccccc3)N2C1C(=O)O` (stereo not given), the GI50 with 786-0 is 19.8 µM (inactive); with A549 it was 31.8 µM (inactive); in the assay on EKVX, 3.97 µM (inactive); in the assay with HOP-62, 32.1 µM (inactive); in the assay on K562, 62.7 µM (inactive); in the assay with KM12, > 100 µM (inactive). Also, the GI50 in the assay with M14 is 37.2 µM (inactive); in the assay on MCF7, 34.2 µM (inactive); in the assay with MOLT-4, > 100 µM (inactive); with NCI-H226 it was 29.8 µM (inactive); in the assay on NCI/ADR-RES it was 33.9 µM (inactive); in the assay with OVCAR-3 it was 49 µM (inactive). The GI50 in the assay with OVCAR-5 was 36.8 µM (inactive); in the assay with RPMI-8226, 46.8 µM (inactive); with RXF 393 it was 34.6 µM (inactive); in the assay with SF-539 it was 30.8 µM (inactive); with SK-MEL-5, > 100 µM (inactive); with SK-OV-3, 41.2 µM (inactive). The GI50 in the assay with SNB-19 is 32.5 µM (inactive); with U-251 it was 32.7 µM (inactive).

As for `Cc1cc(Cl)nc2nc(Cl)c(N)cc12`, the GI50 was 2.86 µM (inactive) with 786-0; 13.5 µM (inactive) in the assay on A549; 3.48 µM (inactive) with EKVX; 6.76 µM (inactive) with HOP-62; 3.23 µM (inactive) in the assay on K562; 5.32 µM (inactive) in the assay on KM12. Besides, the GI50 in the assay on M14 is 8.67 µM (inactive); in the assay with MCF7, 1.63 µM (inactive); with MOLT-4, 4.6 µM (inactive); with NCI-H226, 21.5 µM (inactive); in the assay on NCI/ADR-RES, 14.8 µM (inactive); in the assay on OVCAR-3, 1.87 µM (inactive). Also, the GI50 was 17 µM (inactive) in the assay with OVCAR-5; 2.26 µM (inactive) in the assay on RPMI-8226; 8.2 µM (inactive) in the assay with RXF 393; 4.71 µM (inactive) in the assay with SF-539; 10.9 µM (inactive) with SK-MEL-5; 21.3 µM (inactive) with SK-OV-3. Also, the results for the GI50 in the assay with SNB-19 and with U-251 were 4.95 µM (inactive) and 2.05 µM (inactive), respectively.

Regarding `Cc1nc2ccc(Cl)cc2c(Cl)c1CCCl`, the GI50 in the assay on 786-0 was > 100 µM (inactive); in the assay on A549, 40.9 µM (inactive); in the assay on EKVX it was 51.3 µM (inactive); in the assay on HOP-62, 42.4 µM (inactive); in the assay with K562 it was 9.86 µM (inactive); in the assay on KM12, 30.8 µM (inactive). The GI50 was 31 µM (inactive) in the assay on M14; 30.6 µM (inactive) in the assay on MCF7; 15.6 µM (inactive) in the assay on MOLT-4; 43.6 µM (inactive) in the assay with NCI-H226; 33.5 µM (inactive) in the assay with NCI/ADR-RES; 48 µM (inactive) with OVCAR-3. Also, the GI50 in the assay with OVCAR-5 was 38.5 µM (inactive); with RPMI-8226, 35.2 µM (inactive); with RXF 393 it was > 100 µM (inactive); with SF-539 it was > 100 µM (inactive); in the assay on SK-MEL-5, 25.3 µM (inactive); with SK-OV-3, > 100 µM (inactive). Moreover, the GI50 in the assay on SNB-19 is 45.4 µM (inactive); with U-251 it was 45.9 µM (inactive).

With `CC1CNC(c2ccc(-c3nc(-c4ccc(C5=NC(C)CN5)cc4)nc(N(C)C)n3)cc2)=N1` (stereo not given), the GI50 with 786-0 is 1.28 µM (inactive); with A549, 3.02 µM (inactive); in the assay with EKVX, 2.54 µM (inactive); with HOP-62, 1.47 µM (inactive); with K562 it was 1.41 µM (inactive); in the assay with KM12, 2.23 µM (inactive). The GI50 is 3.21 µM (inactive) in the assay with M14; 1.42 µM (inactive) in the assay with MCF7; 0.681 µM (active) with MOLT-4; 2.02 µM (inactive) in the assay on NCI-H226; 22 µM (inactive) in the assay with NCI/ADR-RES; 1.79 µM (inactive) in the assay on OVCAR-3. The GI50 in the assay on OVCAR-5 was 3.24 µM (inactive); in the assay on RPMI-8226, 3.78 µM (inactive); in the assay on RXF 393 it was 3.22 µM (inactive); in the assay on SF-539 it was 0.855 µM (active); in the assay on SK-MEL-5, 3.8 µM (inactive); in the assay with SK-OV-3 it was 1.91 µM (inactive). Also, the GI50 was 1.75 µM (inactive) with SNB-19 and 0.991 µM (active) in the assay on U-251.

`CC(=O)OC1COC(Nc2nc(NCc3ccccc3)n(C)c(=O)c2N=O)C(OC(C)=O)C1OC(C)=O` (stereo not given): the GI50 with 786-0, in the assay on A549, in the assay on EKVX, with HOP-62, in the assay with K562 and in the assay with KM12 was > 10 µM (inactive) each time. The GI50 in the assay on M14, with MCF7, in the assay with MOLT-4, in the assay with NCI-H226, with NCI/ADR-RES and with OVCAR-3 was > 10 µM (inactive) in each case. The GI50 in the assay on OVCAR-5, in the assay on RPMI-8226, in the assay with RXF 393, with SF-539, in the assay with SK-MEL-5 and in the assay with SK-OV-3 was > 10 µM (inactive) throughout. The GI50 in the assay with SNB-19 and with U-251 was > 10 µM (inactive) each time.

As to `CC(=O)OCC(OC(C)=O)C(OC(C)=O)C(/C=N\Nc1nc2ccccc2c(=O)[nH]1)=N\Nc1nc2ccccc2c(=O)[nH]1` (stereo not given), the GI50 with 786-0 was > 100 µM (inactive); with A549, > 100 µM (inactive); in the assay with EKVX it was > 100 µM (inactive); in the assay with HOP-62 it was > 100 µM (inactive); in the assay with K562 it was > 100 µM (inactive); in the assay with KM12, 4.68 µM (inactive). Also, the GI50 in the assay with M14, in the assay on MCF7, in the assay with MOLT-4, with NCI-H226, in the assay with NCI/ADR-RES and in the assay with OVCAR-3 was > 100 µM (inactive) each time. The GI50 in the assay with OVCAR-5, with RPMI-8226, with RXF 393, in the assay with SF-539, in the assay on SK-MEL-5 and with SK-OV-3 was > 100 µM (inactive) in each case. For the same compound, the GI50 in the assay on SNB-19 and with U-251 was > 100 µM (inactive) throughout.

Regarding `C#Cc1nc(N)c2ncn(C3OC(COS(N)(=O)=O)C(O)C3O)c2n1` (stereo not given), the GI50 with 786-0 is 0.0367 µM (active); in the assay with A549 it was 0.0881 µM (active); in the assay on EKVX, 0.262 µM (active); in the assay on HOP-62, 0.146 µM (active); in the assay on K562 it was 0.0131 µM (active); with KM12, < 0.0193 µM (active). In addition, the GI50 is < 0.0426 µM (active) with M14; 0.0124 µM (active) in the assay on MCF7; < 0.0181 µM (active) with MOLT-4; 0.0158 µM (active) in the assay on NCI-H226; < 0.0184 µM (active) with NCI/ADR-RES; < 0.0194 µM (active) with OVCAR-3. Also, the 50% growth inhibitory concentration (GI50) with OVCAR-5 is < 0.0148 µM (active); in the assay with RPMI-8226, 0.0172 µM (active); in the assay with RXF 393, < 0.0179 µM (active); in the assay on SF-539, 0.0362 µM (active); in the assay on SK-MEL-5, 0.0361 µM (active); in the assay on SK-OV-3, < 0.01 µM (active). Moreover, the GI50 was 0.0208 µM (active) in the assay on SNB-19 and 0.0213 µM (active) in the assay on U-251.

Take `COC(=O)[C@H](C)N(C)C(=O)C(CC(N)=O)N(C)C(=O)[C@H](Cc1ccccc1)N(C)C(=O)[C@@H]1CCCN1C(=O)[C@H](C(C)C)N(C)C(=O)C(C(C)C)N(C)C(=O)[C@@H](NC(=O)OC(C)(C)C)C(C)C` (stereo not given in full) (Boc-V[ξNMeV][NMeV]P[NMeF][ξNMeN][NMeA]-OMe): the GI50 with 786-0 was > 50 µM (inactive); with A549, > 50 µM (inactive); in the assay with EKVX, > 50 µM (inactive); in the assay on HOP-62 it was > 50 µM (inactive); in the assay with K562, > 50 µM (inactive); in the assay with KM12 it was 16.4 µM (inactive). The GI50 with M14 is > 50 µM (inactive); with MCF7, > 50 µM (inactive); in the assay on MOLT-4 it was 24.5 µM (inactive); in the assay on NCI-H226 it was > 50 µM (inactive); in the assay with NCI/ADR-RES it was > 50 µM (inactive); with OVCAR-3, > 50 µM (inactive). In addition, the GI50 with OVCAR-5 is > 50 µM (inactive); in the assay with RPMI-8226 it was > 5 µM (inactive); in the assay with RXF 393, 37.6 µM (inactive); in the assay with SF-539 it was > 50 µM (inactive); in the assay with SK-MEL-5 it was > 50 µM (inactive); in the assay on SK-OV-3 it was > 50 µM (inactive). The GI50 with SNB-19 and in the assay on U-251 was > 50 µM (inactive) each time.

With `C[C@H]1C/C=C/[C@H]2[C@@H]3O[C@]3(C)[C@@H](C)[C@H]3[C@H](Cc4ccccc4)NC(=O)[C@]32OC(=O)O/C=C/[C@@](C)(O)C1=O` [CYTOCHALASIN E], the GI50 in the assay with 786-0 is 0.114 µM (active); with A549, 0.0253 µM (active); with EKVX, 0.075 µM (active); in the assay on HOP-62 it was 0.0206 µM (active); in the assay on K562, 1.72 µM (inactive); with KM12, 17.5 µM (inactive). Besides, the GI50 in the assay with M14 is 0.0436 µM (active); with MCF7, 0.0292 µM (active); in the assay with MOLT-4 it was 8.59 µM (inactive); with NCI-H226, 0.0333 µM (active); in the assay with NCI/ADR-RES, 5.69 µM (inactive); in the assay on OVCAR-3, 0.0975 µM (active). Besides, the GI50 was 11.3 µM (inactive) in the assay with OVCAR-5; 0.556 µM (active) in the assay on RPMI-8226; 0.0111 µM (active) in the assay on RXF 393; 0.0169 µM (active) in the assay with SF-539; 0.0211 µM (active) with SK-MEL-5; 0.0292 µM (active) in the assay with SK-OV-3. Besides, the GI50 in the assay on SNB-19 was 0.0604 µM (active); in the assay with U-251, 0.0188 µM (active).
